Laboratory results: patent publication US7507864B2, “Method for the synthesis of curcumin analogues” (Salisbury University, priority 2006, dated 2009)

Test: Solubility in organic solvents
Assay type: physicochemical
Details: for solubility in acetone: solvent acetone; for solubility in ethanol: solvent ethanol; for solubility in ethyl acetate: solvent ethyl acetate; for solubility in isobutyl acetate: solvent isobutyl acetate
Description: Curcumin is a bright red product once purified and maintains the vanilla fragrance due to the presence of methoxy groups from the starting product vanillin. It is soluble in acetone, ethyl acetate, ethanol, and isobutyl acetate. The solubility of bisdemethoxycurcumin, however, is slightly different. It is very soluble in ethanol and isobutyl acetate but acetone and ethyl acetate solubility is limited. Bisdemethoxycurcumin maintains a pumpkin-orange appearance and is more crystalline in nature than curcumin.

Row | SMILES | solubility in acetone | solubility in ethanol | solubility in ethyl acetate | solubility in isobutyl acetate
1 | O=C(/C=C(O)/C=C/c1ccc(O)cc1)/C=C/c1ccc(O)cc1 [bisdemethoxycurcumin, 1,7-bis-(4-hydroxyphenyl)-1,6-heptadiene-3,5-dione] | limited | very soluble | limited | very soluble
2 | COc1cc(/C=C/C(=O)CC(=O)/C=C/c2ccc(O)c(OC)c2)ccc1O [Curcumin, 1,7-bis(4-hydroxy-3-methoxyphenyl)-1,6-heptadiene-3,5-dione] | soluble | soluble | soluble | soluble
